The structures appear in SMILES notation.

Assay in all cases: AUC of viability dose-response curve (% viability x log10 dose units); higher = less sensitive
Conditions in all cases: 48 h

One experiment has as its system NOMO1. In a few lines: (§1)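 Leukemia cells adapted to each medium were seeded in 1536-well plates (500 or 1000 cells/well). They were dosed with library compounds in DMSO at 11 threefold doses, 47 μM to 0.79 nM, for 48 h at 37°C. CellTiter-Glo One luminescence was normalised per plate to DMSO and cell-free wells. Area under the curve was integrated by trapezoidal rule over log10 doses on a four-parameter log-logistic fit; curves exceeding full viability were scaled and curves failing quality control removed.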

The test system of another experiment is SEM cells. In a few lines:
as §1

For another experiment, the system named is P12-Ichikawa. In a few lines:
as §1

[1] abbreviates: RPMI 5 mM glucose + 10% dialyzed FBS.

Take `NC[C@H]1CC[C@H](C(=O)O)CC1`: the “AUC of viability dose-response curve” value with NOMO1 (HPLM + 10% dialyzed FBS) worked out at 455; in the experiment on NOMO1 (RPMI 5 mM glucose + 10% FBS), 475; with NOMO1 (setting [1]) it was 448; in the experiment on SEM cells (HPLM + 10% dialyzed FBS), 443; with SEM cells (RPMI 5 mM glucose + 10% FBS), 456; in the experiment on SEM cells (setting [1]), 456.
In the case of `CC1=NN(c2ccc(C)c(C)c2)C(=O)/C1=N/Nc1cccc(-c2cccc(C(=O)O)c2)c1O`, the “AUC of viability dose-response curve” value in the experiment on NOMO1 (HPLM + 10% dialyzed FBS) was determined as 431; in the experiment with NOMO1 (RPMI 5 mM glucose + 10% FBS) it was 448; with NOMO1 (setting [1]) it was 428; in the experiment with P12-Ichikawa (HPLM + 10% dialyzed FBS) it was 448; in the experiment on P12-Ichikawa (RPMI 5 mM glucose + 10% FBS), 430; in the experiment with P12-Ichikawa (setting [1]), 426. The entries for the “AUC of viability dose-response curve” value with SEM cells (HPLM + 10% dialyzed FBS), in the experiment with SEM cells (RPMI 5 mM glucose + 10% FBS) and with SEM cells (setting [1]) were 453, 448 and 442, respectively.
In the case of `C[C@H](NC(=O)/C(C#N)=C/c1cccc(Br)n1)c1ccccc1`, the “AUC of viability dose-response curve” value came to 348 with NOMO1 (HPLM + 10% dialyzed FBS); 361 with NOMO1 (RPMI 5 mM glucose + 10% FBS); 371 with NOMO1 (setting [1]); 336 in the experiment on P12-Ichikawa (HPLM + 10% dialyzed FBS); 353 in the experiment with P12-Ichikawa (RPMI 5 mM glucose + 10% FBS); 351 in the experiment with P12-Ichikawa (setting [1]). Further, the “AUC of viability dose-response curve” value is 336 in the experiment with SEM cells (HPLM + 10% dialyzed FBS), 316 in the experiment on SEM cells (RPMI 5 mM glucose + 10% FBS) and 336 in the experiment on SEM cells (setting [1]).
Turning to `CN\1C(=O)/C(=C(\N=C1N2CCCC[S+]2([O-])=O)C(=O)NCC3=CC=C(F)C=C3)O`, the “AUC of viability dose-response curve” value came to 441 in the experiment on NOMO1 (HPLM + 10% dialyzed FBS); 475 in the experiment on NOMO1 (RPMI 5 mM glucose + 10% FBS); 451 in the experiment on NOMO1 (setting [1]); 444 in the experiment with P12-Ichikawa (HPLM + 10% dialyzed FBS); 462 in the experiment on P12-Ichikawa (RPMI 5 mM glucose + 10% FBS); 459 with P12-Ichikawa (setting [1]). In addition, the “AUC of viability dose-response curve” value with SEM cells (HPLM + 10% dialyzed FBS) was 471; in the experiment with SEM cells (RPMI 5 mM glucose + 10% FBS), 458; in the experiment on SEM cells (setting [1]), 466.
In the case of `C[C@H](O)[C@H]1[C@@H]2[C@H](C)C(=C(\N2C1=O)C(O)=O)/S[C@@H]3CN[C@H](CN[S+](N)([O-])=O)C3`, the “AUC of viability dose-response curve” value in the experiment with NOMO1 (HPLM + 10% dialyzed FBS) was 439; in the experiment on NOMO1 (RPMI 5 mM glucose + 10% FBS) it was 443; in the experiment on NOMO1 (setting [1]) it was 452; in the experiment with P12-Ichikawa (HPLM + 10% dialyzed FBS) it was 465; in the experiment with P12-Ichikawa (RPMI 5 mM glucose + 10% FBS) it was 455; in the experiment on P12-Ichikawa (setting [1]), 447. Besides, the “AUC of viability dose-response curve” value with SEM cells (HPLM + 10% dialyzed FBS) stood at 443; with SEM cells (RPMI 5 mM glucose + 10% FBS), 453; in the experiment with SEM cells (setting [1]), 420.
With `CC(C)n1c(/C=C/[C@H](O)C[C@H](O)CC(=O)O)c(-c2ccc(F)cc2)c2ccccc21`, the “AUC of viability dose-response curve” value with NOMO1 (HPLM + 10% dialyzed FBS) amounted to 428; with NOMO1 (RPMI 5 mM glucose + 10% FBS) it was 457; in the experiment on NOMO1 (setting [1]), 448; in the experiment with P12-Ichikawa (HPLM + 10% dialyzed FBS), 381; in the experiment with P12-Ichikawa (RPMI 5 mM glucose + 10% FBS) it was 371; with P12-Ichikawa (setting [1]) it was 355. Moreover, the “AUC of viability dose-response curve” value with SEM cells (HPLM + 10% dialyzed FBS) was 430; in the experiment on SEM cells (RPMI 5 mM glucose + 10% FBS) it was 426; in the experiment on SEM cells (setting [1]) it was 441.
On to `CC(C)(C)C(=O)Oc1ccc2c(c1)nc(NC(=O)c1cccc([N+](=O)[O-])c1)n2CCCO`, for which the “AUC of viability dose-response curve” value in the experiment on NOMO1 (HPLM + 10% dialyzed FBS) was determined as 461; in the experiment on NOMO1 (RPMI 5 mM glucose + 10% FBS), 459; in the experiment on NOMO1 (setting [1]), 458; in the experiment on P12-Ichikawa (HPLM + 10% dialyzed FBS), 460; with P12-Ichikawa (RPMI 5 mM glucose + 10% FBS), 437; in the experiment with P12-Ichikawa (setting [1]), 445. The “AUC of viability dose-response curve” value in the experiment with SEM cells (HPLM + 10% dialyzed FBS) stood at 448; with SEM cells (RPMI 5 mM glucose + 10% FBS), 452; in the experiment with SEM cells (setting [1]), 418.
Take `C[C@]12CC[C@@H]3c4ccc(OC(=O)N(CCCl)CCCl)cc4CC[C@H]3[C@@H]1CC[C@@H]2OP(=O)([O-])[O-].[Na+].[Na+]`: the “AUC of viability dose-response curve” value with NOMO1 (HPLM + 10% dialyzed FBS) was 406; in the experiment with NOMO1 (RPMI 5 mM glucose + 10% FBS), 460; with NOMO1 (setting [1]), 455; in the experiment with SEM cells (HPLM + 10% dialyzed FBS), 429; in the experiment on SEM cells (RPMI 5 mM glucose + 10% FBS) it was 397; in the experiment with SEM cells (setting [1]) it was 382.
Turning to `C[C@]12C[C@H](O)[C@H]3[C@@H](CC\C4=C\C(=O)\C=C/[C@]34C)[C@@H]1CC[C@]2(O)C(=O)CO`, the “AUC of viability dose-response curve” value was 446 in the experiment on NOMO1 (HPLM + 10% dialyzed FBS); 456 in the experiment with NOMO1 (RPMI 5 mM glucose + 10% FBS); 449 in the experiment with NOMO1 (setting [1]); 372 in the experiment on P12-Ichikawa (HPLM + 10% dialyzed FBS); 353 with P12-Ichikawa (RPMI 5 mM glucose + 10% FBS); 349 in the experiment with P12-Ichikawa (setting [1]). Also, the “AUC of viability dose-response curve” value came out at 389 with SEM cells (HPLM + 10% dialyzed FBS), 380 in the experiment on SEM cells (RPMI 5 mM glucose + 10% FBS) and 359 in the experiment with SEM cells (setting [1]).
As for `COc1ccc(Cc2ccc(NC(N)=O)cc2)cc1-c1cccc(Cl)c1`, the “AUC of viability dose-response curve” value came out at 472 in the experiment on NOMO1 (HPLM + 10% dialyzed FBS); 471 in the experiment with NOMO1 (RPMI 5 mM glucose + 10% FBS); 476 in the experiment with NOMO1 (setting [1]); 467 with P12-Ichikawa (HPLM + 10% dialyzed FBS); 465 with P12-Ichikawa (RPMI 5 mM glucose + 10% FBS); 464 in the experiment with P12-Ichikawa (setting [1]). For the same molecule, the entries for the “AUC of viability dose-response curve” value in the experiment on SEM cells (HPLM + 10% dialyzed FBS), in the experiment with SEM cells (RPMI 5 mM glucose + 10% FBS) and with SEM cells (setting [1]) were 458, 465 and 469, respectively.
